According to patent publication US20200024662A1, “METHODS FOR TREATING OPIOID ADDICTION” (ASSUREX HEALTH, INC., priority 2016, published 2020):

Columns and labels:
[1] = tested on: patients treated with Methadone in the START trial; test: Completion of 24-week Methadone treatment, START samples of Example 2; format: in vivo, human; details: 24-week treatment
Description: (§1) Samples from patients treated with Methadone in the START trial described in Example 1 above were used (N=352). […] Each model was tested as described below against Sample 1, Sample 2 and/or the Full Sample.

[2] = tested on: patients treated with Methadone in the START trial; test: Baseline model (GeneSight Analgesic test) binning vs Methadone completion; format: in vivo, human; details: Full Sample
Description: (§2) For the model analyses, models were developed that sort patients into one of three categories, Green (‘G’) Yellow (‘Y’) or Red (‘R’). Patients determined to be high risk for non-completion by the model are placed into the Red Bin. Patients at intermediate risk of non-completion are placed in the Yellow Bin, and for this study, Yellow Bin patients are treated the same as patients found to be at Low Risk of non-completion, or those who are placed in the Green Bin. Thus, the Green and Yellow bins are combined for analysis.
The GeneSight Analgesic test (commercial test available from Assurex Health, Inc.) was used as a baseline to determine High Risk patients entering methadone maintenance therapy. Furthremore, the following PK, PD and PK/PD models were evaluated.
as §1
(§3) Pearson's product moment, Chi-square with Yates correction were calculated. Diagnostic tests, odds ratios, Pearson's product moment, Chi-square with Yates correction were calculated using MEDCALC and R version 3.3.1.

[3] = tested on: patients treated with Methadone in the START trial; test: PK/PD Model 1 binning vs Methadone completion; format: in vivo, human
Description: as §2
(§4) Three separate PK/PD Models were generated by combining the PK model with each of the three PD models separately as follows. For each PKPD model, the corresponding PD risk score was added to the raw PK score (bin). A total PD risk score that was negative, represents a reduction of the baseline PK score, while a total PD risk score that was positive represented an increase in the baseline PK score.
as §1, §3
For PK/PD Model 1, final score was the sum of the PD 1 score and the PK score, where PK green=1, PK Yellow=2 and PK red=3. Bins were assigned according to Table 61.

[4] = tested on: patients treated with Methadone in the START trial; test: PK/PD Model 2 binning vs Methadone completion; format: in vivo, human
Description: as §2, §4, §1, §3

START trial patients = test: Combinatorial gene modeling: composite genetic risk score (biology-based and data-based) vs non-completion
Description: We next undertook a combinatorial approach to assess whether there was a composite genetic risk score having a significant association with completion rate. Risk scores were assigned using two different models, a “biology-based” model and a “data-based” model. The biology based risk scores were assigned using the most biologically appropriate hypothesis for a given genotype or haplotype, for example, based upon the enzyme activity reported to be associated with that genotype or haplotype in the scientific literature (e.g., as shown in Table 1 above) in combination with current biological understanding of the drug including both its pharmacokinetics (how it is absorbed, distributed, metabolized and excreted) and its pharmacodynamics (how it effects the body).
In contrast, the data-based risk scores were assigned based on how the phenotype of the genotype or haplotype for each gene was associated with non-completion in the single-gene analysis above. For example, a patient may be scored 0 if his/her phenotype is reduced, 0.5 if intermediate, and 1 if high.
We then used a composite risk score, which is the sum of the individual risk scores for each gene of interest, to assess the impact of various combinations of genetic markers on the ability of the patients to complete the 24-week drug treatment regimen. The completion/non-completion was modeled using a logistic regression which included the total genetic risk score and dose-bin-category. This model assesses the effect of the total genetic risk score on the non-completion rate while adjusting for drug dose level. The likelihood of non-completion with respect to the total genetic risk score is represented by the odds ratio. If a p-value is <0.05, then it is considered that statistically significant that the non-completion is associated with the total genetic risk score.

[5] = PK/PD Model 1, Full Sample, Green bin
[6] = PK/PD Model 1, Full Sample, Red bin
[7] = PK/PD Model 1, Full Sample, Yellow bin
[8] = PK/PD Model 1, Sample 1, Green bin
[9] = PK/PD Model 1, Sample 1, Red bin
[10] = PK/PD Model 1, Sample 1, Yellow bin
[11] = PK/PD Model 1, Sample 2, Green bin
[12] = PK/PD Model 1, Sample 2, Red bin
[13] = PK/PD Model 1, Sample 2, Yellow bin
[14] = PK/PD Model 2, Full Sample, Green bin, Risk Score −2.2 to 1
[15] = PK/PD Model 2, Full Sample, Red bin, Risk Score 2.7 to 4.7
[16] = PK/PD Model 2, Full Sample, Yellow bin, Risk Score 1.1 to 2.5
[17] = PK/PD Model 2, Sample 1, Green bin, Risk Score −2.3 to 2
[18] = PK/PD Model 2, Sample 1, Red bin, Risk Score 3.3 to 6.7
[19] = PK/PD Model 2, Sample 1, Yellow bin, Risk Score 2.2 to 3.2
[20] = PK/PD Model 2, Sample 2, Green bin, Risk Score −2.2 to 1
[21] = PK/PD Model 2, Sample 2, Red bin, Risk Score 2.7 to 4.7
[22] = PK/PD Model 2, Sample 2, Yellow bin, Risk Score 1.1 to 2.5
[23] = composite genetic risk score vs non-completion, adjusted for Dose-bin, 25 gene combinations

## CCC(=O)C(CC(C)N(C)C)(c1ccccc1)c1ccccc1 (stereo not shown) [Methadone, methadone]
[1]; Sample 1 (N=176)
  Completers: 156
  non-completers: 20
[1]; Sample 2 (N=176)
  Completers: 159
  non-completers: 17
[2]; Green bin
  Completers: 170
  Non Completers: 19
[2]; Red bin
  Completers: 28
  Non Completers: 3
[2]; Yellow bin
  Completers: 109
  Non Completers: 23
[3]; [5]
  Completers: 262
  Non Completers: 23
[3]; [6]
  Completers: 2
  Non Completers: 6
[3]; [7]
  Completers: 43
  Non Completers: 16
[3]; [8]
  Completers: 137
  Non Completers: 11
[3]; [9]
  Completers: 2
  Non Completers: 3
[3]; [10]
  Completers: 17
  Non Completers: 6
[3]; [11]
  Completers: 134
  Non Completers: 10
[3]; [12]
  Completers: 0
  Non Completers: 2
[3]; [13]
  Completers: 25
  Non Completers: 5
[4]; [14]
  Completers: 167
  Non Completers: 8
[4]; [15]
  Completers: 60
  Non Completers: 20
[4]; [16]
  Completers: 80
  Non Completers: 17
[4]; [17]
  Completers: 88
  Non Completers: 3
[4]; [18]
  Completers: 27
  Non Completers: 8
[4]; [19]
  Completers: 41
  Non Completers: 9
[4]; [20]
  Completers: 92
  Non Completers: 2
[4]; [21]
  Completers: 19
  Non Completers: 9
[4]; [22]
  Completers: 48
  Non Completers: 6
START trial patients; Biology-Based, ORG4-CYP2B6-CYP2C19
  Odds Ratio for Non-Completers: 1.38
START trial patients; Biology-Based, ORG4-CYP2C19
  Odds Ratio for Non-Completers: 1.53
START trial patients; Biology-Based, ORG4-CYP2C19-1A2
  Odds Ratio for Non-Completers: 1.53
START trial patients; Biology-Based, ORG4-CYP2C19-2C9
  Odds Ratio for Non-Completers: 1.44
START trial patients; Biology-Based, ORG4-CYP2C19-2D6
  Odds Ratio for Non-Completers: 1.34
START trial patients; Data-Based, ORG4-CYP2B6-CYP2C19
  Odds Ratio for Non-Completers: 1.9
START trial patients; Data-Based, ORG4-CYP2C19
  Odds Ratio for Non-Completers: 1.76
START trial patients; Data-Based, ORG4-CYP2C19-1A2
  Odds Ratio for Non-Completers: 1.46
START trial patients; Data-Based, ORG4-CYP2C19-2C9
  Odds Ratio for Non-Completers: 1.77
START trial patients; Data-Based, ORG4-CYP2C19-2D6
  Odds Ratio for Non-Completers: 1.72
START trial patients; [23]
  composite endpoints significant, biology-based model: 7 of 25
  composite endpoints significant, data-based model: 23 of 25
